Results taken from ChEMBL document CHEMBL1201862, “PubChem BioAssay data set” (2004).
Activity calls are given as the source filed them.

Key:
Nonstructural protein 1 = Nonstructural protein 1 (Influenza A virus, UniProt Q194T2); type: functional, Influenza A virus (A/California/07/2009(H1N1))
Genome polyprotein = Genome polyprotein (dengue virus type 2, UniProt P29990); assay: Dengue-2 NS5 methyltransferase inhibitors, primary screen, biochemical, confirmation dose response (AID 588689); type: functional
[1] = molecular target: T1, Heat shock factor protein 1 (Mus musculus, UniProt P38532); assay: inhibition of MG132-induced HSE-luciferase signal, confirmation, cell-based, NIH3T3, luminescence, dose retest (AID 2382); type: functional;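 also: NIH3T3 fibroblasts with HSF1-driven luciferase reporter stressed by proteasome inhibitor MG132; luminescence from HSF1-driven luciferase expression after 8 hours of MG132 stress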
T1 sequence (P38532 whole entry): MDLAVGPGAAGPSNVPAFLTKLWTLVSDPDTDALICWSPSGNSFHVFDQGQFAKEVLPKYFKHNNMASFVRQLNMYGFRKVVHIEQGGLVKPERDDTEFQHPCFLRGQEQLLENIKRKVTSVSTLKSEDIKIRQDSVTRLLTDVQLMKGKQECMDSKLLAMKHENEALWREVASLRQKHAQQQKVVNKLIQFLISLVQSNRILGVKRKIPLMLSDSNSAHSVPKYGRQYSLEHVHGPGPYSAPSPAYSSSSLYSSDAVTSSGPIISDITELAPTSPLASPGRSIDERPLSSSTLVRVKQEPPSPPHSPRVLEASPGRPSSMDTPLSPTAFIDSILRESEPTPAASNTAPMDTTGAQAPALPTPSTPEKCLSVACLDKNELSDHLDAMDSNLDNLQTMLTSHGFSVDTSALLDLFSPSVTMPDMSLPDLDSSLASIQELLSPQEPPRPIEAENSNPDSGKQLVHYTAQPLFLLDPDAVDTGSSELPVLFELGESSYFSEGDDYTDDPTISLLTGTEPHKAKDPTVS

Large T antigen = Large T antigen (Simian virus 40, UniProt P03070); type: functional, Betapolyomavirus macacae;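 also: Confirmatory-stage PubChem screen for compounds that inhibit SV40 T antigen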
Prothrombin = Prothrombin (Homo sapiens, UniProt P00734); assay: Thrombin 1536 HTS Dose Response Confirmation. [Related pubchem assays: 1046 (Thrombin 1536 HTS; hits were confirmed in this assay)]; type: functional
[2] = inhibitors of intracellular T. cruzi replication, confirmation, NIH3T3 host cells, beta-gal luminescence (AID 2044); type: functional, cell-based;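 also: intracellular parasites grown in NIH/3T3 mouse fibroblasts as host cells; luminescent beta-galactosidase reporter signal from transgenic T. cruzi replicating inside host cells; inhibitors lower the luminescence signal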
[3] = Luminescence Cell-Based Dose Response HTS to Identify Activators of Luciferase Translation or Activity in H4 […] Cells. [Related pubchem assays: 1829 (Project Summary), 1814 (Primary HTS)]; type: functional
H4 = assay: Luminescence Cell-Based Dose Response HTS to Identify Activators of 5'UTR Stem-Loop Driven Prion Protein mRNA Translation in H4 Neuroglioblastoma Cells. [Related pubchem assays: 1829 (Project Summary), 1814 (Primary HTS)]; type: functional; details: Homo sapiens
[4] = microbe, parasite or virus in culture; type: functional; details: Mycobacterium tuberculosis
[5] = Luminescence Cell-Based Dose Confirmation HTS to Identify Activators of 5'UTR Stem-Loop Driven Alpha-Synuclein mRNA Translation in H4 Neuroglioblastoma Cells. [Related pubchem assays: 1829 (Project Summary), 1814 (Primary HTS)]; type: functional
[6] = cytotoxicity toward NIH3T3 fibroblasts, dose response, counter-screen, cell-based, ATP luminescence, mouse fibroblasts (AID 2010); type: functional;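 also: cells exposed to compound for about 90 hours before reading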
Caspase-6 = molecular target: T2, Caspase-6 (Homo sapiens, UniProt P55212); assay: human caspase-6 inhibitors, dose response, biochemical, VEID-R110 fluorescence, cherry-pick (AID 720632)
T2 sequence (P55212 whole entry): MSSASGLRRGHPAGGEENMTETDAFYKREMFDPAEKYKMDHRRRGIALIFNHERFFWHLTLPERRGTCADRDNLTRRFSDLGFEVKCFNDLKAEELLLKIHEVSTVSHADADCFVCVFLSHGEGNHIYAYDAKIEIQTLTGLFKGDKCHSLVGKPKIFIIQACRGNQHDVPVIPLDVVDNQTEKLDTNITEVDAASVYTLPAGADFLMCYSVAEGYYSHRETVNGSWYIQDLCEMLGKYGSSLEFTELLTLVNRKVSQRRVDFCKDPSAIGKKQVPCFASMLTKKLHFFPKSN

[7] = molecular target: T3, Carboxy-terminal domain RNA polymerase II polypeptide A small phosphatase 1 (Homo sapiens, UniProt Q9GZU7); assay: inhibitors of CTDSP1, concentration-response testing, biochemical assay, absorbance-based, actives from ultra-high-throughput screening (AID 540297); type: functional
T3 sequence (Q9GZU7 whole entry): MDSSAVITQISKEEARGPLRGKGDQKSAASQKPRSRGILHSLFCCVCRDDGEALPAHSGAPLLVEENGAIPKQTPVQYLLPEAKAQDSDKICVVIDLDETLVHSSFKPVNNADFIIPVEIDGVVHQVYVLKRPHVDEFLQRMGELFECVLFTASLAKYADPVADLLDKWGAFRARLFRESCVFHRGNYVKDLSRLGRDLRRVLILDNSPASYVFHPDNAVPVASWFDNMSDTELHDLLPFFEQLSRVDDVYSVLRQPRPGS

[8] = cytotoxicity in HEK-293T cells, dose response, cytotoxicity control for TCR NF-kB inhibitor project, luminescence, T-cell screen hits (AID 489026); type: functional, cell-based;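 also: cells exposed to compound about 14 hours before the viability readout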
Protein RecA = molecular target: T4, Protein RecA (Mycobacterium tuberculosis, UniProt P9WHJ3); assay: Fluorescence Cell-Free Homogeneous Dose Retest to Identify Inhibitors of RecA-Intein Splicing Activity. [Related pubchem assays (depositor defined):AID2097, AID2223, AID489010, AID492950]; type: functional
T4 sequence (P9WHJ3 whole entry): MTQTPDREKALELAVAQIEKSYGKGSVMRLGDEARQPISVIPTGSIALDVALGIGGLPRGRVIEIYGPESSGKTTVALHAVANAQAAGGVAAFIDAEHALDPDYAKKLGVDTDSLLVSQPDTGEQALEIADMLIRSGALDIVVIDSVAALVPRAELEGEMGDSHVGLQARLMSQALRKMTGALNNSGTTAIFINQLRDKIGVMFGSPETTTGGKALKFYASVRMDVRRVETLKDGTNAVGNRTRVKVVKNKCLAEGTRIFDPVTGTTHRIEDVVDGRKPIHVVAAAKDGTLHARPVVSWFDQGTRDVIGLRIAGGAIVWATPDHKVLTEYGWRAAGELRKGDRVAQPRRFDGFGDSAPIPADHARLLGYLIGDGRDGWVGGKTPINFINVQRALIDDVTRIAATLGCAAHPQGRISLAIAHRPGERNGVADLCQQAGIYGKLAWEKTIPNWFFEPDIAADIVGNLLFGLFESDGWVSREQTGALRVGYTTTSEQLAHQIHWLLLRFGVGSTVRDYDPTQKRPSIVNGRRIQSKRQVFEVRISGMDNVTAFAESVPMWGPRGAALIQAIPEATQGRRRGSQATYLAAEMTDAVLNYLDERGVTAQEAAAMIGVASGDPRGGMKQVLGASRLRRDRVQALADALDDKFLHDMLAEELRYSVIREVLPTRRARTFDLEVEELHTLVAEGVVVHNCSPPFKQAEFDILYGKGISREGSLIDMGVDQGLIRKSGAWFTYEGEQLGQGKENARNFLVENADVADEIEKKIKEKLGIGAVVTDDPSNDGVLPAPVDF

[9] = molecular target: T5, Replicative DNA helicase DnaB (Mycobacterium tuberculosis, UniProt P9WMR3); assay: DnaB intein splicing inhibitors, dose response, biochemical, cell-free fluorescence (AID 449749); type: functional
T5 sequence (P9WMR3 whole entry): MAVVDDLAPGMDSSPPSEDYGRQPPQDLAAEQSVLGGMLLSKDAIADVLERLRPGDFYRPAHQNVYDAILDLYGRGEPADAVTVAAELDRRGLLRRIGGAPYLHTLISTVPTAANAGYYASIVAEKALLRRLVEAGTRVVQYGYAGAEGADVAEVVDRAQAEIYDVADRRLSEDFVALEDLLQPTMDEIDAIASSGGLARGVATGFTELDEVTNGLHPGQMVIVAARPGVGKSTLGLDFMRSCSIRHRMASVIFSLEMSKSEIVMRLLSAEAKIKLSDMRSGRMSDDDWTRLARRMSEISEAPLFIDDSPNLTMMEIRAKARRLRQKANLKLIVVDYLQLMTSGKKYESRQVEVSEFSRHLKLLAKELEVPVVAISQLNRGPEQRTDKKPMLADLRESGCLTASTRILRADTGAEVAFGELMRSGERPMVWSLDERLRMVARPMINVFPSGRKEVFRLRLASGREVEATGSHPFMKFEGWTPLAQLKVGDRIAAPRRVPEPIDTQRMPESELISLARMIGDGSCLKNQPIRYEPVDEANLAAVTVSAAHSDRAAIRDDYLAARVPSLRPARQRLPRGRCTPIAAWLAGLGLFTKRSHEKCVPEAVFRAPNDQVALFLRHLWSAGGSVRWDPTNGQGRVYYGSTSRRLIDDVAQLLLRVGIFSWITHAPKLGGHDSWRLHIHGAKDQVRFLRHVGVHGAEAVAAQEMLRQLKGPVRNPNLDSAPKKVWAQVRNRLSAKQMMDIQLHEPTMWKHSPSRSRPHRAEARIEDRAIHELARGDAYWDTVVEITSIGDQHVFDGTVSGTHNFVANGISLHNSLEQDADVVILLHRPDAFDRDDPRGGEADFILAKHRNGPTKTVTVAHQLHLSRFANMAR

[10] = cytotoxicity in HEK-293T cells, dose response, cytotoxicity control for BCR NF-kB inhibitor project, luminescence, B-cell screen hits (AID 489021); type: functional, cell-based;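 also: HEK-293T cells carrying an NF-kB luciferase reporter; cells exposed to compound for about 14 hours before viability readout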

Sequence of Nonstructural protein 1 (Q194T2 whole entry): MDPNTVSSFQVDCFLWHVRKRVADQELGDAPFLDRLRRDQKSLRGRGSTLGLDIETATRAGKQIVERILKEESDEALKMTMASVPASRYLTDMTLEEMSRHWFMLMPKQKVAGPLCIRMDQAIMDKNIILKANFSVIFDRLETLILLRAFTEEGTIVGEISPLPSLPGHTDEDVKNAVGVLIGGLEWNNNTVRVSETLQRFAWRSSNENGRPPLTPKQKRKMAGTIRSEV
Sequence of Large T antigen (P03070 whole entry): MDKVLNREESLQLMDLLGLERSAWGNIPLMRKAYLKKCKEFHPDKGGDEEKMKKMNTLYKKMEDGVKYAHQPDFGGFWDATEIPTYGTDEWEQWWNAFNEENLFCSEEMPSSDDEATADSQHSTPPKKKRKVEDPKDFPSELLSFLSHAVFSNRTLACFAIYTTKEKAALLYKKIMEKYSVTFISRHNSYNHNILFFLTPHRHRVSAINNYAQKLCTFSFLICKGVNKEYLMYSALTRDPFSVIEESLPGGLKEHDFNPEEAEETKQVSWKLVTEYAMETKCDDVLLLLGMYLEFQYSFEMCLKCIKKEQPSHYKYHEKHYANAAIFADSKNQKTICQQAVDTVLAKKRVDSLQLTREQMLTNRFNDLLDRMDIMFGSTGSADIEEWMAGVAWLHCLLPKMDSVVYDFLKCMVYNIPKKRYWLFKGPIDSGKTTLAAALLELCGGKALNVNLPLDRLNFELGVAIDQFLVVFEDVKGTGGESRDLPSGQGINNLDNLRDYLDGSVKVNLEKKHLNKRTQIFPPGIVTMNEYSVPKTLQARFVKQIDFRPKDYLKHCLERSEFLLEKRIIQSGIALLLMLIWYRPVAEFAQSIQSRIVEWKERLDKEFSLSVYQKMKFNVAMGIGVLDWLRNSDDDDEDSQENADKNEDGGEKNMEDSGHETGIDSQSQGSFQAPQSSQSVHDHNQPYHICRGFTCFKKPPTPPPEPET
Sequence of Genome polyprotein (P29990 2492-3391 limits assumed): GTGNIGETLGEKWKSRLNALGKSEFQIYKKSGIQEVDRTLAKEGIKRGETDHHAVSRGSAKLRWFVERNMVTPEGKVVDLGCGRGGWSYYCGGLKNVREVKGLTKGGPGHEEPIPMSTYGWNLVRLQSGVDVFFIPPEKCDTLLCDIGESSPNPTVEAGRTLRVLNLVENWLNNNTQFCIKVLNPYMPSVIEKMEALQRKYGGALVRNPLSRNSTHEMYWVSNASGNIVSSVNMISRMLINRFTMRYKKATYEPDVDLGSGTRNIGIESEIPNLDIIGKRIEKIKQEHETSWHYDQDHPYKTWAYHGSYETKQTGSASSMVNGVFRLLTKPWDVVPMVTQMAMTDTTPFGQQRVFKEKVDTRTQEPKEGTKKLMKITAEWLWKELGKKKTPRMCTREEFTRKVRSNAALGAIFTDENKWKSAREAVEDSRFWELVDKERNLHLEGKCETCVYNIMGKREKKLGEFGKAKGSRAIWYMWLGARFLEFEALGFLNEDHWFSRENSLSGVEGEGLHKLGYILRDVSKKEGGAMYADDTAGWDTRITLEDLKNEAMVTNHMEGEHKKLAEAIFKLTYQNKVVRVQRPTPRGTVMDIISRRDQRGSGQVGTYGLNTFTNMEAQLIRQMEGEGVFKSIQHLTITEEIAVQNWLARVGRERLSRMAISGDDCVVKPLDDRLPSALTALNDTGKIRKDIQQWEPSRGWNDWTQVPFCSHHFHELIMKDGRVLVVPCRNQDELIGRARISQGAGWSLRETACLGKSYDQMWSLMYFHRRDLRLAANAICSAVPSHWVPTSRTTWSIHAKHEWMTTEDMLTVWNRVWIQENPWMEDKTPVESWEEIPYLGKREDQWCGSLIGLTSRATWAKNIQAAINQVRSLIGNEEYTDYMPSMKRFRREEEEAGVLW

Structure (SMILES): Nn1c(SC/C=C/c2ccccc2)nnc1-c1ccccn1
- IC50 (Nonstructural protein 1): 24 µM (active)

Structure (SMILES): CC1=C(C#N)c2nc(N)c(C#N)c(C)c2/C1=C\c1ccc(OCC(=O)O)c(Cl)c1
- IC50 (Genome polyprotein): 35.9 µM (active)
- EC50 [1]: > 195 µM (not active)
- IC50 (Large T antigen): 44.3 µM (active)

Structure (SMILES): CCN(CC)S(=O)(=O)c1ccc2c(c1)c(=O)c(C(=O)NCc1cccs1)cn2C
- IC50 (Prothrombin): 0.0331 µM (active)

Structure (SMILES): COc1ccc(NCc2nc3ccccc3n2CCOc2ccccc2)cc1
- EC50 [2]: 2.36 µM (active)
- EC50 [3]: 53.4 µM (active)
- EC50 (H4): 79.8 µM (active)
- CC50 [4]: > 40 µM (active)
- EC50 [5]: 7.26 µM (active)
- EC50 [6]: > 60 µM (not active)

Structure (SMILES): O=C(NNC(=O)c1ccccc1Br)c1ccc2nc[nH]c2c1
- AC50 (Caspase-6): 23.6 µM (active)
- IC50 [7]: 7.34 µM (active)

Structure (SMILES): CCOC(=O)CSC1=C(C#N)C(c2ccc(C)s2)CC(=O)N1 (stereo not given)
- IC50 [8]: > 80 µM (inactive)

Structure (SMILES): CC1=NN(Cc2ccccc2)C(=O)/C1=C/c1ccc(N(C)C)cc1
- EC50 (Protein RecA): 1.22 µM (active)
- AC50 [9]: 4.15 µM (active)
- IC50 (Nonstructural protein 1): 50.9 µM (active)

Structure (SMILES): CN1CCN(C(=O)c2ccccc2N(Cc2ccccc2)S(=O)(=O)c2ccccc2)CC1
- IC50 [10]: > 80 µM (inactive)

Structure (SMILES): Cc1ccc(S(=O)(=O)N2CCN(C(=O)c3ccc(N4CCCC4)c([N+](=O)[O-])c3)CC2)cc1
- IC50 (Nonstructural protein 1): > 100 µM (active)

Structure (SMILES): CCCc1nc(NC(C)=O)c(C#N)c(-c2ccco2)c1CC
- IC50 (Prothrombin): > 50 µM (not active)

Structure (SMILES): CCC1C(c2ccccc2)N(C)C(c2ccccc2)CC1(O)c1ccccc1 (stereo not given)
- EC50 [2]: 2.31 µM (active)
- CC50 [4]: > 40 µM (active)
- EC50 [6]: > 60 µM (not active)

Structure (SMILES): COc1ccc(CNc2ccc(N3CCOCC3)cc2)cc1
- IC50 (Large T antigen): 16.8 µM (active)

Structure (SMILES): O=C(CCCN1C(=O)/C(=C/c2ccccc2Cl)SC1=S)Nc1cccnc1
- IC50 [10]: > 80 µM (inactive)
